# Experimental data as given in PubChem BioAssay AID1259411 (Chemical Carcinogenesis Research Information System (CCRIS), 2018).
# Calls of active or inactive are those of the source. The rule behind the calls is not given here.
# Test system: rodent carcinogenicity bioassays, tumor incidence
# Assay: CCRIS carcinogenicity studies
# Conditions: Dose: 0, Dose: 0
# Method in brief: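 Archive of carcinogenicity, mutagenicity, tumor promotion and tumor inhibition results drawn from journals, NCI reports and other sources, expert-reviewed; covers 1985-2011 and is no longer updated.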
structure (smiles),measurement,setting,value
CCn1nc(C)c2c1C(c1ccccc1)=NCC(=O)N2,carcinogen call,"Species: MOUSE, Strain/Sex: CD-1/FEMALE, Route: ORAL, 15, 150, MG/KG IN DIET FOR 78 WK (STUDY DURATION: 78 WK), 15, 150, MG/KG IN DIET FOR 78 WK (STUDY DURATION: 78 WK)",inactive; negative
same,carcinogen call,"Species: MOUSE, Strain/Sex: CD-1/MALE, Route: ORAL, 15, 150, MG/KG IN DIET FOR 78 WK (STUDY DURATION: 78 WK), 15, 150, MG/KG IN DIET FOR 78 WK (STUDY DURATION: 78 WK), Tumor Site: Type of Lesion: LIVER: ADENOMA",active; positive
same,carcinogen call,"Species: RAT, Strain/Sex: CD/FEMALE, Route: ORAL, 15, 150 MG/KG IN DIET FOR 104 WK (STUDY DURATION: 104 WK), 15, 150 MG/KG IN DIET FOR 104 WK (STUDY DURATION: 104 WK)",inactive; negative
same,carcinogen call,"Species: RAT, Strain/Sex: CD/MALE, Route: ORAL, 15, 150 MG/KG IN DIET FOR 104 WK (STUDY DURATION: 104 WK), 15, 150 MG/KG IN DIET FOR 104 WK (STUDY DURATION: 104 WK)",inactive; negative
O=C([O-])CNCCNCC(=O)[O-].O=C([O-])CNCCNCC(=O)[O-].O=C([O-])CNCCNCC(=O)[O-].[Fe+3].[Fe+3],carcinogen call,"Species: RAT, Strain/Sex: WISTAR/MALE, Route: INTRAPERITONEAL, 10 MG/KG BW 2/WK FOR 3 MO (STUDY DURATION: 1 YR), Tumor Site: Type of Lesion: KIDNEY: TUMOR",active; positive
CNCCC(Oc1ccc(C(F)(F)F)cc1)c1ccccc1 (stereo not drawn),carcinogen call,"Species: MOUSE, Strain/Sex: B6C3F1/FEMALE, Route: ORAL, 0.001, 0.004, 0.01% IN DIET FOR 24 MO (STUDY DURATION: 24 MO), 0.001, 0.004, 0.01% IN DIET FOR 24 MO (STUDY DURATION: 24 MO)",inactive; negative
same,carcinogen call,"Species: MOUSE, Strain/Sex: B6C3F1/MALE, Route: ORAL, 0.001, 0.004, 0.01% IN DIET FOR 24 MO (STUDY DURATION: 24 MO), 0.001, 0.004, 0.01% IN DIET FOR 24 MO (STUDY DURATION: 24 MO)",inactive; negative
same,carcinogen call,"Species: RAT, Strain/Sex: F344/FEMALE, Route: ORAL, 0.001, 0.0045, 0.02% IN DIET FOR 24 MO (STUDY DURATION: 24 MO), 0.001, 0.0045, 0.02% IN DIET FOR 24 MO (STUDY DURATION: 24 MO)",inactive; negative
same,carcinogen call,"Species: RAT, Strain/Sex: F344/MALE, Route: ORAL, 0.001, 0.0045, 0.02% IN DIET FOR 24 MO (STUDY DURATION: 24 MO), 0.001, 0.0045, 0.02% IN DIET FOR 24 MO (STUDY DURATION: 24 MO)",inactive; negative
CCCCCCc1ccc(O)cc1O,carcinogen call,"Species: MOUSE, Strain/Sex: B6C3F1/FEMALE, Route: GAVAGE, 62.5, 125 MG/KG IN CORN OIL 5D/WK FOR 102 WK (STUDY DURATION: 104 WK), 62.5, 125 MG/KG IN CORN OIL 5D/WK FOR 102 WK (STUDY DURATION: 104 WK)",inactive; negative
same,carcinogen call,"Species: MOUSE, Strain/Sex: B6C3F1/MALE, Route: GAVAGE, 62.5, 125 MG/KG IN CORN OIL 5D/WK FOR 102 WK (STUDY DURATION: 104 WK), 62.5, 125 MG/KG IN CORN OIL 5D/WK FOR 102 WK (STUDY DURATION: 104 WK), Tumor Site: Type of Lesion: ADRENAL GLAND: PHEOCHROMOCYTOMA, HARDERIAN GLAND: ADENOMA OR CARCINOMA",equivocal
same,carcinogen call,"Species: RAT, Strain/Sex: F344/FEMALE, Route: GAVAGE, 62.5, 125 MG/KG IN CORN OIL 5D/WK FOR 103 WK (STUDY DURATION: 104 WK), 62.5, 125 MG/KG IN CORN OIL 5D/WK FOR 103 WK (STUDY DURATION: 104 WK)",inactive; negative
same,carcinogen call,"Species: RAT, Strain/Sex: F344/MALE, Route: GAVAGE, 62.5, 125 MG/KG IN CORN OIL 5D/WK FOR 103 WK (STUDY DURATION: 104 WK), 62.5, 125 MG/KG IN CORN OIL 5D/WK FOR 103 WK (STUDY DURATION: 104 WK)",inactive; negative
